Data from patent EP0808832B1, “Fluorinated vitamin D3 analogs” (F. HOFFMANN-LA ROCHE AG, priority 1996, dated 1997).
Where “and” joins values, the source holds several entries; their conditions need not be identical. Equal values may be shown once. Read-outs that look alike come from different tables or passages of the source.

What was measured:
[1] = test system: rats are ovariectomized (Ovx); type: in vivo, rat; conditions: for Whole Femur BMD: 3 to 6 weeks post-ovariectomy, right femur; for Urine Calcium/Creatinine 6th wk): 0.20 µg/kg once a day by mouth
Excerpt: Three month old rats are ovariectomized (Ovx) and administered either 1,25-dihydroxy vitamin D3 (vit. D in Table) or one of the compounds of the present invention once a day by mouth starting at 3 weeks post-ovariectomy and continuing until final sacrifice at 6 weeks post-ovariectomy. Control groups, both sham (rats that were not ovariectomized) and Ovx, received vehicle only. Blood and urine samples were collected twice, at 4 weeks post-ovariectomy and again at the 6 week mark and the amount of serum and urine calcium was determined. The final femoral calcium determined upon sacrifice 6 weeks post- ovariectomy.
The bone mineral density (BMD) of the right femur was determined by using a High Resolution Software Package on a QDR-1000W Bone Densitometer™ (Hologic, Walthan, MA). The animals were scanned by placing them on a scanning block in a supine position such that the right leg was perpendicular to the main body and the tibia was perpendicular to the femur.
The increase in the bone mineral density and the amount of calcium in the urine and the serum for some of the compounds of this invention in this assay are given in the table below: […]

[2] = test system: women with postmenopausal osteoporosis; conditions: 0.25 microgram twice daily, after 3 years, mild to moderate disease, compared with elemental calcium 1000 mg/day; cited from earlier work

SMILES: C=C1/C(=C\C=C2/CCC[C@]3(C)C([C@@H](C)C/C=C/C(C)(O)C(F)(F)F)=CC[C@@H]23)C[C@@H](O)C[C@@H]1F (stereo partly drawn) [Cpd. 57, 1-α-Fluoro-25(RS)-hydroxy-16,23E-diene-26-trifluoro-20-epi-cholecalciferol]
- Whole Femur BMD ([1]; 1.50 µg/kg once a day by mouth): 0.248 g/cm^2

SMILES: C=C1/C(=C\C=C2/CCC[C@]3(C)[C@@H](C4(CC#CC(C)(C)O)CC4)CC[C@@H]23)C[C@@H](O)C[C@@H]1F [Cpd. 58, 1-α-Fluoro-25-hydroxy-23-yne-20,21,28-cyclopropylcholecalciferol]
- Whole Femur BMD ([1]; 5.00 µg/kg once a day by mouth): 0.236 g/cm^2

SMILES: C=C1/C(=C\C=C2/CCC[C@]3(C)C([C@@H](C)CC#CC4(O)CCCC4)=CC[C@@H]23)C[C@@H](O)C[C@@H]1F [Cpd. 59, 1-α-Fluoro-25-hydroxy-16-ene-23-yne-25,26,27-cyclopentyl-20-epi-cholecalciferol]
- Whole Femur BMD ([1]; 2.00 µg/kg once a day by mouth): 0.233 g/cm^2

SMILES: C=C1/C(=C\C=C2/CCC[C@]3(C)[C@@H](C4(C/C=C/C(O)(C(F)(F)F)C(F)(F)F)CC4)CC[C@@H]23)C[C@@H](O)C[C@@H]1F [Cpd. 60, 1-α-Fluoro-25-hydroxy-23E-ene-26,27-hexafluoro-20,21,28-cyclopropyl-cholecalciferol]
- Whole Femur BMD ([1]; 0.10 µg/kg once a day by mouth): 0.242 g/cm^2

SMILES: C=C1/C(=C\C=C2/CCC[C@]3(C)[C@@H](C4(CC#CC(O)(C(F)(F)F)C(F)(F)F)CC4)CC[C@@H]23)C[C@@H](O)C[C@@H]1F [Cpd. 61, 1-α-Fluoro-25-hydroxy-23-yne-26,27-hexafluoro-20,21,28-cyclopropyl-cholecalciferol]
- Whole Femur BMD ([1]; 0.50 µg/kg once a day by mouth): 0.243 g/cm^2

SMILES: C=C1/C(=C\C=C2/CCC[C@]3(C)[C@@H]([C@H](C)CCCC(C)(C)O)CC[C@@H]23)C[C@@H](O)C[C@@H]1O [Vit D, 1,25-dihydroxy vitamin D3]
- lower rate of new vertebral fractures [2]: 3 fold
- Urine Calcium/Creatinine 6th wk) [1]: 1.35 mg/dL and 1.44 mg/dL
- Urine Calcium/Creatinine 6th wk) ([1]; listed as Vit. D): 0.76 mg/dL and 1.44 mg/dL and 1.48 mg/dL
